Measurements as given in US6943924B2, “Apparatus and method for digital holographic imaging” (Ecole Polytechnique Federale de Lausanne (EPFL), priority 2001, dated 2005).

Test system: cultured mouse cortical neurons
Assay: Digital holographic imaging (DHI) of glutamate-mediated morphological changes (phase/OPL signal) in neurons
Assay type: cell-based
Description: FIG. 3 presents an example of application of the present invention to image living cells in culture enclosed in a perfusion chamber 30 filled with a physiological solution 37. […] A CCD camera 35 records the hologram. The hologram is produced by the interference with a reference wave 36. A numerical procedure is then applied to reconstruct the hologram. The obtained phase-contrast image can be presented in 3D perspective, as presented for example in FIG. 4d.
From the quantitative phase-contrast image, quantitative data about the cell morphology can be obtained. The refractive index, at the wavelength of 633 nm, of the perfused solution nm=1.3336±0.0002, was measured with an Abbe refractometer. By assuming, in first approximation, a constant and homogeneous cellular refractive index ns=1.365, one can estimate that an phase of 10 degree corresponds to a cellular thickness d=0.6 μm. Using this relation between phase and thickness, phase measurements extracted from specific pixels of the quantitative phase-contrast image presented FIG. 3c, yields a thickness of 1-3 μm for the neuronal processes and of approximately 8 μm for the cell body. Even with the assumption of a homogeneous distribution of intracellular refractive index (which can be discussed given a certain degree of heterogeneity of its constituents), these estimations of cell morphology give realistic values of typical cell dimensions as described in the literature for the mouse cortical neurons presented here. Using the same assumption for refractive index of the cell, and based on a phase measurement accuracy of 0.7 degree, that is dictated by experimental opto-mechanical noise, we obtain an axial (or vertical) resolution of 40 nanometers.
As an example of application of the present invention, the present invention has been applied to study the effects of an excitatory neurotransmitter (glutamate) on the morphology of cultured mouse cortical neurons. The influence of glutamate on neuron morphology has been already described as resulting from excitotoxicity, for high concentrations (20-500 μM) and long exposures of several minutes. […] It has also been established that this effect occurs in response to the activation of N-methyl-D-aspartate (NMDA) receptors. FIG. 4a presents the temporal evolution of the phase signal measured, in real-time by DHI, in the domain delimited by a black rectangle in FIG. 4b, which presents a typical example of a quantitative phase contrast image of a living mouse cortical neuron immersed in a physiological solution. […] These pulses of pharmacological agents are indicated by black triangles in FIG. 4a. […] The concentrations of GLUT, are respectively 15 μM, 10 μM, 15 μM and 20 μM. At instants indicated by black triangles 45 and 46, 400 μM of kynurenate (KYN), a broad spectrum ionotropic glutamate receptor antagonist, has been added to GLUT. […] These OPL increases could be reproduced several times over periods of more than three hours. […] A concentration-response curve (FIG. 4c) has been established on the basis of 5 different experiments. As response amplitudes vary from cell to cell, results were normalized with respect to the maximal response which occurred at a concentration of ˜15 μM. […] Without glycine cells started to respond at glutamate concentrations higher than 15 μM and for only ˜25% of cells (vs. ˜80% in the presence of glycine). As glycine is an NMDA receptor co-agonist, this behavior further emphasizes the role these receptors in the glutamate-evoked responses. The maximum amplitude of a typical phase increase is ˜10 degree representing ˜5% of the initial cellular phase. If we assume once again a constant cellular refractive index (ns=1.365), this corresponds to an increase in the vertical (z) axis of ˜0.6 μm.

O=C(O)c1cc(=O)c2ccccc2[nH]1 [KYN, kynurenate]
effect on glutamate-evoked phase signal (400 μM added to GLUT): No increase of the phase signal occurs

C[C@]12N[C@H](Cc3ccccc31)c1ccccc12 [MK-801]
effect on glutamate-evoked phase signal (5 μM added to GLUT): inhibited

N[C@@H](CCC(=O)O)C(=O)O [glutamate]
maximum amplitude of a typical phase increase: ~10 degree | maximum phase increase as share of the initial cellular phase: ~5% | EC50 (20 seconds pulses, glycine (3 μM) in perfusion solutions, 5 different experiments, normalized to maximal response, read-out: EC50 of glutamate-evoked phase response (Hill equation fit of concentration-response curve)): ~7.5 µM | phase signal on application alone (GLUT 15, 10, 15 and 20 μM pulses of 20 seconds): Marked phase increases | increase in the vertical (z) axis (assuming constant cellular refractive index ns=1.365): ~0.6 μm | Hill coefficient (concentration-response curve, glycine (3 μM) present): 3.75±0.4 | concentration at which the maximal response occurred (glycine (3 μM) present): ~15 µM | cells responding (in the presence of glycine): ~80% | cells responding (without glycine): ~25% | glutamate concentration at which cells started to respond (without glycine): higher than 15 μM
